Laboratory results from patent publication US20220395472A1 (Dermavant Sciences GmbH, priority 2021, published 2022).

System: adults with plaque psoriasis
Test: Long-term open-label extension study (PSOARING 3): Physician Global Assessment (PGA), treatment episodes, treatment success, remittive effect
Assay type: in vivo, human
Settings: for Proportion of subjects who never achieved PGA = 0 or 1 throughout the study / Proportion of subjects who achieved PGA = 0 or 1 at least 1 time during the study: entering with PGA ≥ 2
Experimental: This extension study consisted of up to 40 weeks of treatment and a 4 week, safety follow up period.
At the completion of the Week 12 visit of the DB, pivotal Phase 3 study, eligibility of the subjects opting to enroll in this extension study was confirmed. Study visits during the treatment period for all subjects occurred every 4 weeks (±3 days). A phone call was performed at Week 2 (Day 15). Unscheduled visits may have occurred, as needed. Subjects who withdrew from this study before Week 40 returned to the study center for an Early Termination visit. The total duration of this extension study participation was 44 weeks. Subjects in this study were treated as follows based on their PGA score from the Week 12 visit in the DB, pivotal Phase 3 study (Study DMVT 505 3001 or Study DMVT 505 3002).
The PGA was used to assess the primary efficacy endpoint in this study. The PGA is a clinical tool for assessing the current state/severity of a subject's psoriasis at a given time point. It is a static, 5 point, morphological assessment of overall disease severity, as determined by the Investigator, using the clinical characteristics of erythema, scaling, and plaque thickness/elevation as guidelines; higher PGA scores represent more severe disease (0=clear, 1=almost clear, 2=mild, 3=moderate, and 4=severe). The BSA affected was not considered in scoring of the PGA. Variations of the PGA are frequently used in clinical studies because it is a simple assessment, similar to those used in clinical practice. The PGA was performed first, prior to the % BSA, PASI, and LTS assessments.
Time to event parameters, such as the time from treatment success to subsequent worsening (PGA≥2) or duration of treatment episode, were summarized by the Kaplan Meier product limit method using OC.

[1] = entering with PGA = 0, Kaplan-Meier, Overall
[2] = entering with PGA = 0, Kaplan-Meier, Tapinarof (Pivotal) group
[3] = entering with PGA = 0, Kaplan-Meier, Vehicle (Pivotal) group
[4] = entering with PGA = 0, Tapinarof (Pivotal) group
[5] = entering with PGA = 0, Vehicle (Pivotal) group
[6] = entering with PGA ≥ 1, Kaplan-Meier, Vehicle (Pivotal) group
[7] = entering with PGA ≥ 1, Tapinarof (Pivotal) group
[8] = entering with PGA ≥ 1, Vehicle (Pivotal) group
[9] = final analysis, overall, baseline

CC(C)c1c(O)cc(/C=C/c2ccccc2)cc1O [Tapinarof, 3,5-Dihydroxy-4-isopropyl-trans-stilbene]
PGA 2 - Mild (Week 40 OC, Vehicle (Pivotal)): 35 (31.0) n (%)
PGA 3 - Moderate (Week 40 OC, Vehicle (Pivotal)): 15 (13.3) n (%)
PGA 4 - Severe (Week 40 OC, Vehicle (Pivotal)): 0 (0.0) n (%)
PGA Change from Baseline: Improved by 1 (Week 40 OC, Vehicle (Pivotal)): 41 (36.3) n (%)
PGA Change from Baseline: Improved by 2 (Week 40 OC, Vehicle (Pivotal)): 27 (23.9) n (%)
PGA Change from Baseline: Improved by 3 (Week 40 OC, Vehicle (Pivotal)): 17 (15.0) n (%)
PGA Change from Baseline: Improved by 4 (Week 40 OC, Vehicle (Pivotal)): 1 (0.9) n (%)
PGA Change from Baseline: No Change (Week 40 OC, Vehicle (Pivotal)): 19 (16.8) n (%)
PGA Change from Baseline: Worsened by 1 (Week 40 OC, Vehicle (Pivotal)): 7 (6.2) n (%)
PGA Change from Baseline: Worsened by 2 (Week 40 OC, Vehicle (Pivotal)): 1 (0.9) n (%)
PGA Change from Baseline: Worsened by 3 (Week 40 OC, Vehicle (Pivotal)): 0 (0.0) n (%)
PGA Change from Baseline: Worsened by 4 (Week 40 OC, Vehicle (Pivotal)): 0 (0.0) n (%)
Durability of Response, No. of Subjects (Wk. 0, Overall): 240
Durability of Response, No. of Subjects (Wk. 0, Tapinarof→Tapinarof): 18
Durability of Response, No. of Subjects (Wk. 4, Overall): 273
Durability of Response, No. of Subjects (Wk. 4, Tapinarof→Tapinarof): 216
Durability of Response, No. of Subjects (Wk. 4, Vehicle→Tapinarof): 57
Durability of Response, No. of Subjects (Wk. 8, Overall): 330
Durability of Response, No. of Subjects (Wk. 8, Tapinarof→Tapinarof): 243
Durability of Response, No. of Subjects (Wk. 8, Vehicle→Tapinarof): 87
Durability of Response, No. of Subjects (Wk. 12, Overall): 334
Durability of Response, No. of Subjects (Wk. 12, Tapinarof→Tapinarof): 233
Durability of Response, No. of Subjects (Wk. 16, Overall): 336
Durability of Response, No. of Subjects (Wk. 16, Tapinarof→Tapinarof): 239
Durability of Response, No. of Subjects (Wk. 16, Vehicle→Tapinarof): 97
Durability of Response, No. of Subjects (Wk. 20, Overall): 358
Durability of Response, No. of Subjects (Wk. 20, Tapinarof→Tapinarof): 250
Durability of Response, No. of Subjects (Wk. 24, Overall): 346
Durability of Response, No. of Subjects (Wk. 24, Tapinarof→Tapinarof): 236
Durability of Response, No. of Subjects (Wk. 28, Overall): 336
Durability of Response, No. of Subjects (Wk. 28, Tapinarof→Tapinarof): 230
Durability of Response, No. of Subjects (Wk. 32, Overall): 339
Durability of Response, No. of Subjects (Wk. 32, Tapinarof→Tapinarof): 233
Durability of Response, No. of Subjects (Wk. 36, Overall): 340
Durability of Response, No. of Subjects (Wk. 36, Tapinarof→Tapinarof): 225
Durability of Response, No. of Subjects (Wk. 40, Overall): 330
Durability of Response, No. of Subjects (Wk. 40, Tapinarof→Tapinarof): 224
Time to First Worsening (PGA ≥ 2), Median (95% CI) (entering with PGA = 0 (n=78), Kaplan-Meier, Overall, interim): 115 (85.0, 162.0) days
Time to First Worsening (PGA ≥ 2), 25th percentile (95% CI) [1]: 54 (29.0, 66.0) days
Time to First Worsening (PGA ≥ 2), 75th percentile (95% CI) [1]: 222 (169.0, 309.0) days
Time to First Worsening (PGA ≥ 2), 25th percentile (95% CI) [2]: 54 (29.0, 76.0) days
Time to First Worsening (PGA ≥ 2), 75th percentile (95% CI) [2]: 196 (168.0, 309.0) days
Time to First Worsening (PGA ≥ 2), Median (95% CI) [2]: 114 (85.0, 142.0) days
Time to First Worsening (PGA ≥ 2), 25th percentile (95% CI) [3]: 66 (42.0, NE) days
Time to First Worsening (PGA ≥ 2), Median (95% CI) [3]: 281 (42.0, NE) days
Proportion of subjects who experienced PGA ≥ 2 at least 1 time during the study (entering with PGA = 0, Overall): 59/78 (75.6) %
Proportion of subjects who never experienced PGA ≥ 2 throughout the study (entering with PGA = 0, Overall): 19/78 (24.4) %
Proportion of subjects who experienced PGA ≥ 2 at least 1 time during the study (entering with PGA = 0, Overall, listed as tapinarof): 75.6%
Proportion of subjects who experienced PGA ≥ 2 at least 1 time during the study [4]: 56/73 (76.7) %
Proportion of subjects who never experienced PGA ≥ 2 throughout the study [4]: 17/73 (23.3) %
Proportion of subjects who experienced PGA ≥ 2 at least 1 time during the study [5]: 3/5 (60.0) %
Proportion of subjects who never experienced PGA ≥ 2 throughout the study [5]: 2/5 (40.0) %
Time to First Achieving PGA = 0, 25th percentile (entering with PGA ≥ 1, Kaplan-Meier, Overall): 141 days
Time to First Achieving PGA = 0, 25th percentile (entering with PGA ≥ 1, Kaplan-Meier, Overall, listed as tapinarof): 141 days
Time to First Achieving PGA = 0, 25th percentile (entering with PGA ≥ 1, Kaplan-Meier, Tapinarof (Pivotal) group): 113 days
Time to First Achieving PGA = 0, 25th percentile (entering with PGA ≥ 1, Kaplan-Meier, Tapinarof (Pivotal) group, listed as tapinarof): 113 days
Time to First Achieving PGA = 0, 25th percentile [6]: 169 days
Time to First Achieving PGA = 0, Median [6]: 313 days
Time to First Achieving PGA = 0, 25th percentile (entering with PGA ≥ 1, Kaplan-Meier, Vehicle (Pivotal) group, listed as tapinarof): 169 days
Proportion of subjects who achieved PGA = 0 at least 1 time during the study (entering with PGA ≥ 1, Overall): 221/681 (32.5) %
Proportion of subjects who never achieved PGA = 0 throughout the study (entering with PGA ≥ 1, Overall): 460/681 (67.5) %
Proportion of subjects who achieved PGA = 0 at least 1 time during the study (entering with PGA ≥ 1, Overall, listed as tapinarof): 32.5%
Proportion of subjects who achieved PGA = 0 at least 1 time during the study [7]: 139/432 (32.2) %
Proportion of subjects who never achieved PGA = 0 throughout the study [7]: 293/432 (67.8) %
Proportion of subjects who achieved PGA = 0 at least 1 time during the study (entering with PGA ≥ 1, Tapinarof (Pivotal) group, listed as tapinarof): 32.2%
Proportion of subjects who achieved PGA = 0 at least 1 time during the study [8]: 82/249 (32.9) %
Proportion of subjects who never achieved PGA = 0 throughout the study [8]: 167/249 (67.1) %
Proportion of subjects who achieved PGA = 0 at least 1 time during the study (entering with PGA ≥ 1, Vehicle (Pivotal) group, listed as tapinarof): 32.9%
Proportion of subjects who never achieved PGA = 0 or 1 throughout the study (Overall): 222/520 (42.7) %
Proportion of subjects who achieved PGA = 0 or 1 at least 1 time during the study (Overall, interim): 298/520 (57.3) %
Proportion of subjects who achieved PGA = 0 or 1 at least 1 time during the study (Overall, interim, listed as tapinarof): 57.3%
Proportion of subjects who achieved PGA = 0 or 1 at least 1 time during the study (Tapinarof (Pivotal) group): 154/288 (53.5) %
Proportion of subjects who never achieved PGA = 0 or 1 throughout the study (Tapinarof (Pivotal) group): 134/288 (46.5) %
Proportion of subjects who achieved PGA = 0 or 1 at least 1 time during the study (Tapinarof (Pivotal) group, listed as tapinarof): 53.5%
Proportion of subjects who achieved PGA = 0 or 1 at least 1 time during the study (Vehicle (Pivotal) group): 144/232 (62.1) %
Proportion of subjects who never achieved PGA = 0 or 1 throughout the study (Vehicle (Pivotal) group): 88/232 (37.9) %
Proportion of subjects who achieved PGA = 0 or 1 at least 1 time during the study (Vehicle (Pivotal) group, listed as tapinarof): 62.1%
Patients entering with PGA≥2 who achieved PGA 0 or 1 at least once during the study (final analysis): 58.2%
Patients who achieved complete disease clearance (PGA=0) at least once during the study (final analysis, 312/763): 40.9%
participants with PGA=0 or 1 (final analysis, overall, Week 40): 44.3%
participants with PGA=0 [9]: 10.4%
participants with PGA=0 or 1 [9]: 31.6%
mean total duration of remittive effect (final analysis, patients entering with, or achieving, PGA=0 (n=312)): 130 days
